This is an account of results in patent US10662445B2, “Process for the production of bio-butanol by fermentation of glycosidic waste matter” (priority 2018, dated 2020).

Data set [1] is described as follows: Organic-solvent extraction of microbial inhibitors from an agro-waste hydrolysate mimic. In kind it is physicochemical. Conditions: for Inhibitor extraction, phase separation by centrifugal force / Inhibitor extraction, phase separation by separating funnel: solvent bis-(2-ethylhexyl) sebacate; for Ferulic acid removal / Furfural removal / HMF removal / Syringaldehyde removal / TRS removal / Vanillic acid removal / Vanillin removal / TRS (total reducing sugar) after extraction: Vaqueous:Vorganic = 2:1; for TRS (total reducing sugar) after extraction: standard 52.00 g/L. An excerpt:
Media composition was designed according to the inhibitory compound limit concentration reported in the literature for bio-butanol producing solventogenic Clostridia (Baral et al. Microbial inhibitors: formation and effects on acetone-butanol-ethanol fermentation of lignocellulosic biomass. Applied microbiology and biotechnology, Vol. 98(22), 2014: 9151-9172; Qureshi et al. Production of butanol (a biofuel) from agricultural residues: Part I—Use of barley straw hydrolysate. Biomass and bioenergy, Vol. 34(4), 2010: 559-565). Different volume ratio of the hydrolysate mimic and organic solvents, such as (5:1), (3:1), (2:1), (1:1) and (1:2) (vaqueous:vorganic) were tried in order to minimize extractant expenditure. Organic and aqueous phase mixing was carried out by a propeller impeller. Rotation rate (100, 200, 250, 300 and 400 rpm) and operation-time (15, 30, 45, 60 and 90 min) were tested at room temperature (25° C.). A comparative study between settling through separating funnel vs. centrifugal force assisted separation was also made to guarantee an optimal recovery of the broth phase.
A complex mixture of several reduced sugar compounds (e.g. as glucose, fructose, and xylose) and microbial inhibitors (furfural, HMF, acetic acid, levulinic acid, vanillin, vanillic acid, feluric acid and syringaldehyde) were produced during the pretreatment step (hydrolysis). In order to analyse these compounds, liquid samples were collected and analyzed using liquid chromatography-mass spectrometry (LC-MS) and liquid chromatography-tandem mass spectrometry (LC/MS-MS) equipped with a ZORBAX Carbohydrate column (5 μm, 150×4.6 mm ID column) (Agilent Technologies, USA) with D6 glucose as the internal standard and a Biobasic-18 column (5 μm, 250×4.6 mm ID) (Agilent Technologies, USA) with phenylethanol-D5 as the internal standard. […] Methanol water (8:2) and acetonitrile water (8.5:1.5) were used to dilute the sample before inhibitor and carbohydrate analysis. […]

For data set [2], the system named is Clostridium beijerinckii NRRL B-466 (CB). Description: Bio-compatibility (solvent toxicity) batch ABE fermentation, CB. How it is done:
(§1) Clostridium acetobutylicum NRRL B-582 (ATCC-824) (CA) and Clostridium beijerinckii NRRL B-466(CB) were considered for current investigation to produce bio-butanol from different brewery industry wastes. They were kindly provided by Agricultural Research Station, USDA (USA). The microorganisms were grown and maintained in peptone-yeast extract-glucose (PYG) media under anaerobic condition (vegetative growth) at 37±1° C. and 150 rpm for 24 h and 17 h, respectively, before being transferred into the fermentation medium. The medium (g L^−1) comprised: glucose (10); yeast extract (10); peptone (5); tryptone (5); cysteine-HCl (0.5); K2HPO4 (2.04); KH2PO4 (0.04); FeSO4*7H2O (1.1×10^−3); CaCl2 (8×10^−3); MgSO4*7H2O (0.0192); NaCl (0.08); and NaHCO3 (0.4). 125 mL serum bottles (working volume 50 mL) were used for both butanol production and inoculum development (Maiti et al., January 2016, Maiti et al., August 2015). Anaerobic conditions were maintained within the bottle by sparging N2 for 10 minutes and immediately sealed by an aluminum crimp seal containing silicone septum (Fisher scientific, Canada) by means of a hand operated crimper (E-Z Crimper™, VWR, Ontario, Canada). Prior to culture development, the medium was sterilized for 20 min at 121±1° C. About 10% (v/v) (dry cell weight […]) of microbial culture in its exponential phase of growth (OD600nm=1.3-1.5) was used as inoculum for all the experiments conducted in this investigation.
(§2) Set-1, set-4 and set-5 were included as control-1, control-2 and control-3 respectively. All the experiments were carried out in P2 nutrient media as described later in batch fermentation section.
(§3) Batch fermentation was performed in 125 mL serum vials (working volume of 50 mL) at pH 6.7±0.1. The P2 medium was sterilized at 121±1° C. for 20 min. Prior to fermentation, anaerobic conditions for each bottle were maintained by sparging the medium with N2 for 10 minutes and immediately closing with an aluminum crimp seal containing silicon septum (Fisher scientific, Canada) by means of a hand-operated crimper (E-Z Crimper™, VWR, Ontario, Canada). A modified P2 medium, with the following composition, was used for fermentation experiments: Buffer→KH2PO450 g/L, K2HPO450 g/L, ammonium acetate 220 g/L; Minerals→MgSO4*7H2O 20 g/L, MnSO4*H2O 1 g/L, FeSO4*7H2O 1 g/L, NaCl 1 g/L; Vitamins→thiamin 0.1 g/L, biotin 0.001 g/L). Since brewery industry wastes were already enriched with yeast protein, no additional yeast protein nor peptone were supplemented.
(§4) The fermentation was initiated by inoculating the P2 medium with the seed cultures at a ratio of 10% (v:v). […] Fermentation experiments were performed at 37±1° C. with shaking at 150 rpm for 72 h in duplicates. 1 mL of culture broth from each batch assay was used for metabolite analysis. Data described here present average values from duplicate runs for duplicate samples.
(§5) To determine the different metabolites produced during ABE fermentation (i.e. butanol, ethanol, acetone, butyric acid, and acetic acid) liquid samples from each fermentation broth were collected and analyzed using gas chromatography (GC) (GC7890B, Agilent Technologies, USA) equipped with a FID detector and a HP-INNOWax™ column (30 m, 0.25 mm ID, 0.25 μm df). Isobutanol was used as the internal standard. Before injecting the sample (1 mL) in the GC for products analysis, the sample was centrifuged for 5 minutes at 7650×g and the supernatant was filtered by 0.45 μm syringe filter. The GC conditions comprised: helium carrier gas at a flow rate of 1 mL/min with a temperature ramp from the initial temperature of 50° C. to 150° C.

In data set [3] the test system is Clostridium acetobutylicum NRRL B-582 (ATCC-824) (CA). Description: Bio-compatibility (solvent toxicity) batch ABE fermentation, CA. Conditions: for ABE / Butanol: CA. How it is done: as §1, §2, §3, §4, §5
The mark [4] stands for this setting: homogenizer rotational speed 100 rpm.
The mark [5] stands for this setting: homogenizer rotational speed 200 rpm.
Where [6] appears, read: homogenizer rotational speed 250 rpm.
The mark [7] stands for this setting: homogenizer rotational speed 300 rpm.
Setting [8] is: homogenizer rotational speed 400 rpm.
The mark [9] stands for this setting: Control-2 (glucose + BIS) + extraction (2:1 mimic:organic solvent) before fermentation.
The mark [10] stands for this setting: Set-7 (10 times diluted BIS) + extraction (2:1).
Setting [11] is: Set-8 (50 times diluted BIS) + extraction (2:1).
Where [12] appears, read: Extraction 1, hydrolysate mimic.
[13] abbreviates: Extraction 2, hydrolysate mimic.
Where [14] appears, read: Extraction 3, hydrolysate mimic.
Setting [15] is: Extraction 4, hydrolysate mimic.
Setting [16] is: first stage, ratio 2:1, hydrolysate mimic.
Setting [17] is: simulated synthetic media as well as waste hydrolysate, ex-situ detoxification.

Take `O=Cc1ccc(CO)o1` [HMF, hydroxymethyl furfural]: the “Inhibitor extraction, phase separation by centrifugal force” value was 71% in data set [1] (setting [4]); 74% in data set [1] (setting [5]); 79% in data set [1] (setting [6]); 82% in data set [1] (setting [7]); 84% in data set [1] (setting [8]). Besides, the “Inhibitor extraction, phase separation by separating funnel” value is recorded as 71% in data set [1] (setting [4]); 73% in data set [1] (setting [5]); 78% in data set [1] (setting [6]); 80% in data set [1] (setting [7]); 80% in data set [1] (setting [8]).

Take `COc1cc(C=O)ccc1O` [Vanillin, vanillin]: the “Inhibitor extraction, phase separation by centrifugal force” value in data set [1] (setting [4]) stood at 95%; in data set [1] (setting [5]), 95%; in data set [1] (setting [6]), 97%; in data set [1] (setting [7]), 97%; in data set [1] (setting [8]), 96%. Further, the “Inhibitor extraction, phase separation by separating funnel” value was 93% in data set [1] (setting [4]); 93% in data set [1] (setting [5]); 95% in data set [1] (setting [6]); 97% in data set [1] (setting [7]); 97% in data set [1] (setting [8]).

For `CCCCC(CC)COC(=O)CCCCCCCCC(=O)OCC(CC)CCCC` (stereo not drawn) [bis-(2-ethylhexyl) sebacate], in data set [2] (setting [9]), the ABE is 13.15 ± 0.3 g/L and the Butanol came to 9.58 ± 0.2 g/L. Moreover, in data set [2] (setting [10]), the ABE was determined as 11.48 ± 0.4 g/L and the Butanol stood at 8.62 ± 0.3 g/L. For the same molecule, in data set [2] (setting [11]), the ABE was 11.0 ± 0.3 g/L and the Butanol came out at 8.4 ± 0.2 g/L. Further, in data set [1] (setting [12]), the Ferulic acid removal is 97%, the Furfural removal is given as 79%, the HMF removal was found to be 78% and the Syringaldehyde removal worked out at 93%. Moreover, in data set [1] (setting [12]), the TRS removal is 0%, the Vanillic acid removal is 93%, the Vanillin removal is given as 95% and the “TRS (total reducing sugar) after extraction” value (shortened to “TRS (total reducing sugar)”) is recorded as 52.00 g/L. Moreover, in data set [1] (setting [13]), the Ferulic acid removal was found to be 99%, the Furfural removal came out at 97%, the HMF removal was determined as 96% and the Syringaldehyde removal was 99%. Also, in data set [1] (setting [13]), the TRS removal amounted to 0%, the Vanillic acid removal was 97%, the Vanillin removal turned out to be 97% and the “TRS (total reducing sugar)” value was 52.00 g/L. In data set [1] (setting [14]), this molecule had a Ferulic acid removal of 100%, a Furfural removal of 100%, an HMF removal of 100% and a Syringaldehyde removal of 100%. In data set [1] (setting [14]), the TRS removal worked out at 0%, the Vanillic acid removal stood at 100%, the Vanillin removal came out at 100% and the “TRS (total reducing sugar)” value came to 52.00 g/L. Further, in data set [1] (setting [15]), the Ferulic acid removal is 100%, the Furfural removal stood at 100%, the HMF removal came to 100% and the Syringaldehyde removal worked out at 100%. In data set [1] (setting [15]), the TRS removal stood at 0%, the Vanillic acid removal is recorded as 100%, the Vanillin removal was 100% and the “TRS (total reducing sugar)” value was 52.00 g/L. Further, in data set [1] (setting [16]), the “Extraction efficiency for phenolic compounds” value was greater than 93% and the “Extraction efficiency towards furan derivatives” value is 78-79%. The “Removal of the inhibitors from the mimic synthetic media” value in data set [1] (set-10 and set-11 (10 and 50 times diluted BIS), extraction 2:1) was greater than 99%. In data set [1] (setting [17]), the “Extraction of furan derivatives” value is “More than 80%”, the “Extraction of phenolic compounds” value is recorded as “more than 95%” and the “Extraction of reducing sugar” value is “almost no extraction”. In addition, in data set [3] (setting [9]), the ABE was determined as 13.96 ± 0.3 g/L and the Butanol was found to be 10.25 ± 0.5 g/L. Besides, in data set [3] (setting [10]), the ABE was 12.5 ± 0.2 g/L and the Butanol is listed as 9.13 ± 0.2 g/L. In data set [3] (setting [11]), the ABE is on record as 12.2 ± 0.3 g/L and the Butanol amounted to 9.1 ± 0.3 g/L. In addition, the “Average increase in bio-butanol production in comparison with control 1/set-1” value in data set [3] (set-9: control 2 after extraction, both bacterial strains) is 8-10%.

As for `O=Cc1ccco1` [Furfural, furfural], the “Inhibitor extraction, phase separation by centrifugal force” value was 68% in data set [1] (setting [4]); 69% in data set [1] (setting [5]); 78% in data set [1] (setting [6]); 78% in data set [1] (setting [7]); 80% in data set [1] (setting [8]). Besides, the “Inhibitor extraction, phase separation by separating funnel” value in data set [1] (setting [4]) is reported as 65%; in data set [1] (setting [5]), 68%; in data set [1] (setting [6]), 75%; in data set [1] (setting [7]), 76%; in data set [1] (setting [8]), 78%.
